Measurements as given in patent publication US20230414638A1, “S[…] COMPOUNDS AS AMPK ACTIVATOR AND USES THEREOF” (SOCIETE DES PRODUITS NESTLE S.A., priority 2020, published 2023).
Entries after “also recorded” stand apart in the source; their conditions may differ.

Columns and labels:
[1] = test system: primary mouse hepatocytes; experiment: Lipogenesis ([1-14C]-acetate incorporation into fatty acids) in primary hepatocytes; assay type: cell-based; settings: varying concentrations, 1 h at 37 C
Experimental: Hepatocyte isolation: The liver was first perfused with 50 ml perfusion buffer (Krebs-Hepes buffer with […] EDTA), followed with 50 ml collagenase A buffer (Krebs-Hepes buffer with 5 mM CaCl2) and 0.5 mg/ml collagenase). After passage through a 100 μm mesh, the cell solution was washed several times with cold media and finally the cell culture pellet was resuspended in culture medium (medium 199 (M199)+GlutaMAX, 100 U/ml penicillin G, and 100 μg/ml streptomycin, 0.1% (wt/vol) BSA, 10% FCS, 10 nM insulin, 200 nM triiodothyronine and 500 nM dexamethasone). Hepatocytes were left to attach (3-4 h) and cultured overnight in M199 supplemented with antibiotics and 100 nM dexamethasone. Cells were used for experiments the following morning.
For lipogenesis measurements in primary hepatocytes, cells were seeded at 600 K cells per well in a 6-well plate overnight. Media was replaced with fresh M199 media alone for 2 hours prior to incubation with varying concentrations of compound 1 for 1 h at 37 C, in the presence of [1-14C]-acetate. The incorporation of [14C] into fatty acids was determined in the lower organic layer after separation from the aqueous phase.

[2] = test system: AMPK β1 WT; experiment: pACC HTRF assay in AMPKβ1/β2 double knockout U-2 OS cells stably expressing β1 WT; assay type: cell-based, human; settings: AMPKβ1β2 double knockout cells stably expressing β1 WT, varying concentrations, 30 mins at 37 C
Description: (§1) A MPKβ1/β2 double knockout U-2 OS Flp-In™ T-Rex™ cell lines were generated by Horizon Discovery (Cambridge, UK). Cells were genotyped and analysed by western blotting to confirm that there was a complete knockout of AMPKβ1/β2. We took these AMPKβ1/β2 double knockout cells, and re-introduced the expression of human β1 wild-type (WT) or a β1 Serine 108 to alanine mutation (S108A). This was achieved using the Flp-In™ system (Invitrogen) present in this cell line and stable cells expressing β1 WT or a β1 S108A mutant were generated according to the manufacturers' protocols. Re-expression of the β1 subunit was confirmed by western blot analysis.
(§2) Cells stably expressing β1 WT or a β1 S108A mutant were treated with varying concentrations of Compound 1 and subjected to the pACC HTRF (Cisbio) assay to determine the level of phosphorylation of the AMPK substrate, ACC, in cell lysates, as in example 1.
We took AMPKβ1/β2 double knockout cells, and re-introduced the expression of human […] or β2 WT isoforms. […] Cells stably expressing β1 WT or β2 were treated with varying concentrations of compound 1 and subjected to the pACC HTRF (Cisbio) assay to determine the level of phosphorylation of the AMPK substrate, ACC, in cell lysates, as in example 1. […]

[3] = test system: β2-containing AMPK complexes; experiment: pACC HTRF assay in AMPKβ1/β2 double knockout U-2 OS cells stably expressing β2 WT; assay type: cell-based, human; settings: AMPKβ1β2 double knockout cells stably expressing β2 WT, varying concentrations, 30 mins at 37 C
Experimental: We took AMPKβ1/β2 double knockout cells, and re-introduced the expression of human […] or β2 WT isoforms. […] Cells stably expressing β1 WT or β2 were treated with varying concentrations of compound 1 and subjected to the pACC HTRF (Cisbio) assay to determine the level of phosphorylation of the AMPK substrate, ACC, in cell lysates, as in example 1. […] This activation profile is characteristic of activators that bind to the ADaM site and consistent with previous studies showing that ADaM-site activators have poorer activation of β2-containing complexes in vitro and in cells.

[4] = test system: AMPK; experiment: pACC HTRF assay (Cisbio) in U-2 OS Flp-In T-REx cells; assay type: cell-based; settings: varying concentrations, 30 mins at 37 C
Experimental: U-2 OS Flp-In T-REx cells were seeded at 50 K in a 96-well plate and left overnight at 37 C in DMEM GlutaMAX (Thermo Fisher Scientific) supplemented with 10% (vol/vol) FBS and 100 U/ml penicillin G, and 100 μg/ml streptomycin. Cells were treated for 30 mins with varying concentrations of Compound 1 in media lacking FBS and then cells were lysed in 50 μl of Cisbio lysis buffer #1 supplemented with blocking solution as per the manufacturer's protocol (Cisbio). Compound 1 is 2,4-dihydroxy-3-[(1R,6R)-3-methyl-6-prop-1-en-2-ylcyclohex-2-en-1-yl]-6-pentylbenzoic acid, also known as Cannabidiolic acid, CAS number: 1244-58-2.
Cells were lysed for 30 mins at room temperature before 16 μl of lysate was incubated with 4 μl of the HTRF antibodies (1:40 dilution of the acceptor and donor (p)ACC antibodies, as per the manufacturers protocol). Lysates were incubated overnight with the antibodies before 665 nm/620 nm ratio was determined using a MolecularDevices i3 plate reader (with a HTRF cartridge add-on).

[5] = test system: ADaM-binding site AMPK mutant (β1 S108A); experiment: pACC HTRF assay in AMPKβ1/β2 double knockout U-2 OS cells stably expressing β1 S108A mutant; assay type: cell-based, human; settings: AMPKβ1β2 double knockout cells stably expressing β1 S108A mutant, varying concentrations, 30 mins at 37 C
Description: as §1, §2

C=C(C)[C@@H]1CCC(C)=C[C@H]1c1c(O)cc(CCCCC)c(C(=O)O)c1O [Compound 1, 2,4-dihydroxy-3-[(1R,6R)-3-methyl-6-prop-1-en-2-ylcyclohex-2-en-1-yl]-6-pentylbenzoic acid]
Lipogenesis (percentage compared to the no treatment control) [1]: dose-dependent inhibition of lipogenesis; also recorded: able to inhibit lipogenesis in a dose-dependent manner
Phosphorylation of ACC (fold increase in activation) [2]: able to dose-dependently increase pACC
Phosphorylation of ACC (fold increase in activation) [3]: impaired activation of AMPK; also recorded: impaired ability of compound 1 to increase pACC
Phosphorylation of ACC (fold increase in activation) [4]: increased the phosphorylation of the AMPK substrate, acetyl-CoA carboxylase (ACC); also recorded: increases the phosphorylation of the AMPK substrate, ACC, in a dose-dependent manner
Phosphorylation of ACC (fold increase in activation) [5]: did not activate AMPK; also recorded: not able to increase pACC
